Consider 12 molecules from ChEMBL document CHEMBL1130592, “The synthesis and biological activity of a novel series of diazepine MMP inhibitors” (Bioorg Med Chem Lett, 1998).

Test [1] has as its target Matrix metalloproteinase-9 (Homo sapiens, UniProt P14780). Briefly: Inhibition of matrix metalloprotease-9 (MMP-9).
For the next test, the target named is Collagenase 3 (Homo sapiens, UniProt P45452).
The next test addresses T1, Interstitial collagenase (Homo sapiens, UniProt P03956).
T1 sequence (P03956 whole entry): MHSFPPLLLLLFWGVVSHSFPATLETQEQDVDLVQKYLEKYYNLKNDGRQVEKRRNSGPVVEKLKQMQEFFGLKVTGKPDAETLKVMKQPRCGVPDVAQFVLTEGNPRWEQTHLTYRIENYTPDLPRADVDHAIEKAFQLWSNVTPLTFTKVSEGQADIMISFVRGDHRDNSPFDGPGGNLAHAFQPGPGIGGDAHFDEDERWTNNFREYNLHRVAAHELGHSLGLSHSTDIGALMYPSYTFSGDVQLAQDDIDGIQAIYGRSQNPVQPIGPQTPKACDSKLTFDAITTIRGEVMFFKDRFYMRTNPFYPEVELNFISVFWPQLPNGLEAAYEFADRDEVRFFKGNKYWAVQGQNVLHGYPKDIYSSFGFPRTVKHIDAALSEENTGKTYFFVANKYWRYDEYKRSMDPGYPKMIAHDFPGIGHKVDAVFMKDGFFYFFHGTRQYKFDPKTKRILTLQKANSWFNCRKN
Briefly: Inhibition of matrix metalloprotease-1 (MMP-1).

Matrix metalloproteinase-9, sequence (P14780 whole entry): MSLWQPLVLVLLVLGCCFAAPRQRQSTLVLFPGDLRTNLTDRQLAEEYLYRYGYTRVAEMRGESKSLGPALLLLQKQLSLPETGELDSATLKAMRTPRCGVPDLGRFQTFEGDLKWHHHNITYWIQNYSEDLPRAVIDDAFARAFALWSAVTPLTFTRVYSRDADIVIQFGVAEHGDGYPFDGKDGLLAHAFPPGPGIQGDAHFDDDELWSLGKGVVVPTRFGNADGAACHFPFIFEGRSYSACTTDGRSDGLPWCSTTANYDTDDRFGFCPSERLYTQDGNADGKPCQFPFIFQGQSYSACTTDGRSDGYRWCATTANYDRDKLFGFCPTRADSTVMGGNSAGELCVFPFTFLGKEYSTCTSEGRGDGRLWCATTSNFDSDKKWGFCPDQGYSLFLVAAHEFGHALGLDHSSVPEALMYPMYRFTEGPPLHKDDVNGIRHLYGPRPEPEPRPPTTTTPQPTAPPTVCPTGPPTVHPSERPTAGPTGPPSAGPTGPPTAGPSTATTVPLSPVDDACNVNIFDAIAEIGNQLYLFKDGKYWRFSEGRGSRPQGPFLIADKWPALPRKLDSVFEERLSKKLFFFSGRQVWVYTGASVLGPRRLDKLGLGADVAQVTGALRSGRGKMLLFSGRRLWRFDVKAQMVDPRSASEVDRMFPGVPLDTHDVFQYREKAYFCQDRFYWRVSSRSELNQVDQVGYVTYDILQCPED
Description for Collagenase 3: Inhibition of matrix metalloprotease-13 (MMP-13)

The term IC50 denotes the midpoint of a concentration-inhibition curve. High values mean weaker potency, low ones greater potency. As for `COc1ccc(S(=O)(=O)N2CCCN(C(=O)N[C@@H](C)c3ccccc3)CC2C(=O)NO)cc1` (stereo partly specified), the IC50 was determined as 9.2 nM in test [1], 10.4 nM at Collagenase 3 and 312 nM at Interstitial collagenase.

For `COc1ccc(S(=O)(=O)N2CCCN(C(=O)OC(C)(C)C)CC2C(=O)NO)cc1` (stereo unspecified), the IC50 in test [1] worked out at 9.1 nM; against Collagenase 3, 26 nM; at Interstitial collagenase it was 618 nM.

Turning to `COc1ccc(S(=O)(=O)N2CCCN(C(=O)Nc3ccccc3)CC2C(=O)NO)cc1` (stereo unspecified), the 50% inhibitory concentration (IC50) in test [1] came to 18 nM; against Collagenase 3, 17 nM; against Interstitial collagenase, 309 nM.

Turning to `COc1ccc(S(=O)(=O)N2CCCN(C(=O)c3ccccc3-c3ccccc3)CC2C(=O)NO)cc1` (stereo unspecified), the results for the half-inhibitory concentration (IC50) (in test [1]; against Collagenase 3; against Interstitial collagenase) were 3.3 nM, 4.6 nM and 116 nM, respectively.

`COc1ccc(S(=O)(=O)N2CCCN(C(=O)c3ccccc3)CC2C(=O)NO)cc1` (stereo unspecified): the IC50 in test [1] stood at 2 nM; against Collagenase 3, 2.2 nM; against Interstitial collagenase, 45 nM.

Consider `COc1ccc(S(=O)(=O)N2CCCN(C(=O)C(C)(C)C)CC2C(=O)NO)cc1` (stereo unspecified), for which the 50% inhibitory concentration (IC50) is 4.8 nM in test [1], 11 nM against Collagenase 3 and 251 nM against Interstitial collagenase.

Consider `COc1ccc(S(=O)(=O)N2CCCN(C(=O)c3ccc(OC(F)(F)F)cc3)CC2C(=O)NO)cc1` (stereo unspecified), for which the values for the half-maximal inhibitory concentration (IC50) (in test [1]; at Collagenase 3; on Interstitial collagenase) were 4 nM, 6.2 nM and 128 nM, respectively.

`COc1ccc(S(=O)(=O)N2CCCN(Cc3ccccc3)CC2C(=O)NO)cc1` (stereo unspecified): the figures for the half-maximal inhibitory concentration (IC50) (in test [1]; at Collagenase 3; against Interstitial collagenase) were 31 nM, 65 nM and 445 nM, respectively.

Regarding `COc1ccc(S(=O)(=O)N2CCCN(C(=O)CN)CC2C(=O)NO)cc1` (stereo unspecified), the results for the IC50 (in test [1]; against Collagenase 3; against Interstitial collagenase) were 157 nM, 46 nM and 703 nM, respectively.

With `COc1ccc(S(=O)(=O)N2CCCNCC2C(=O)NO)cc1` (stereo unspecified), the concentration for half-maximal inhibition (IC50) in test [1] worked out at 60 nM; at Collagenase 3, 5.1 nM; against Interstitial collagenase, 91 nM.

On to `COc1ccc(S(=O)(=O)N2CCCN(C(=O)CNC(=O)OC(C)(C)C)CC2C(=O)NO)cc1` (stereo unspecified), for which the half-maximal inhibitory concentration (IC50) in test [1] is 23 nM; on Collagenase 3, 16 nM; against Interstitial collagenase it was 690 nM.

`O=C(NO)C1CN(C(=O)c2ccccc2)CCCN1S(=O)(=O)c1ccc(Oc2ccccc2)cc1` (stereo unspecified): the IC50 in test [1] was found to be 1.2 nM; against Collagenase 3 it was 1.3 nM; at Interstitial collagenase, 22 nM.
